Results from US9351983B2, “Use of glycerophosphoinositols for the treatment of septic shock” (CONSIGLIO NAZIONALE DELLE RICERCHE, priority 2012, dated 2016).

What was measured:
TNFα = test: ELISA of TNFα in medium of LPS-stimulated monocytes; type: cell-based, human; settings: 300 μM
Procedure: (§1) FIG. 5—The inhibitory effects of GroPIns are also evident at the protein expression level. Purified monocytes (4×10^3 cells/sample) were pre-incubated for 20 min at 37° C. in the absence and presence of 300 μM GroPIns, and then for a further 5 h and 24 h without or with 0.1 μg/ml LPS from E. coli. At the end of this incubation, the levels of TNFα, IL-1β and TxB-2 in the medium were assessed by ELISA. In monocytes alone, the protein concentrations were under the assay detection limits at both the times. The data are representative of three independent experiments performed with cells from different donors. Exposure of monocytes to LPS induced a time-dependent increase in the […] levels of all of the cytokines analysed.
(§2) Cellular levels of TNFα, IL-1β and TxB-2 were quantified by enzyme-linked immunosorbent assay (ELISA). Conditioned medium from monocytes was sedimented by centrifugation at 300×g at room temperature for 10 min to eliminate cellular debris. Then, the supernatant was recovered and the concentrations of TNFα, IL-1β and TxB-2 were assessed by ELISA, as specified by the manufacturers (Amersham Pharmacia Biotech (NJ, USA).

[1] = test system: inhibitor of kB, α (IκB-α) gene expression; test: In vitro model of human inflammation: real-time PCR of IκB-α; type: cell-based; settings: 300 μM; 4 h, 14 h, 24 h, 48 h; one donor, preliminary
Procedure: (§3) FIG. 15—Glycerophosphoinositol modulates the kinetic transcriptional profile of genes involved in the regulation of inflammatory response. Human monocytes were purified from one donor and treated according to the in vitro model of human inflammation, previously described, in absence (blue line) or in presence (red line) of 300 μM glycerophosphoinositol. In detail glycerophosphoinositol was added to cells in culture 20 minutes before LPS, IL-10 and TGF-β, that is, again after each wash. Samples were collected at time 4 h, 14 h, 24 h, 48 h; freshly isolated monocytes have been considered as control at time 0 h. Total RNA was extracted from cells by RNeasy kit (Qiagen) and reverse-transcribed to cDNA (QuantiTect Reverse Transcription kit, Qiagen). […] Each sample was measured in triplicate and data were analyzed with Pfaffl methods for comparing relative expression data. The measurement of mRNA expression was expressed as fold-increase over control (time 0 h). […]
(§4) Total RNA was extracted with RNeasy kit (Qiagen) according to the manufacturer's instructions. Both integrity and quality of total RNA were checked by agarose gel electrophoresis and the concentration of each RNA sample was assessed spectrophotometrically. Total RNAs were reverse-transcribed to cDNA (QuantiTect Reverse Transcription kit, Qiagen) with oligo-dT and random primers, according to manufacturer's protocol. […]

Interleukin-6 (IL-6) = test: In vitro model of human inflammation: ELISA of IL-6 in supernatants; type: cell-based; settings: 300 μM; full inflammation (4 h and 14 h); one donor
Procedure: FIG. 16—Glycerophosphoinositol inhibits the release of cytokines. Human monocytes were purified from one donor and treated according to the in vitro model of human inflammation, previously described, in absence (blue line) or in presence (red line) of 300 μM glycerophosphoinositol. In detail, glycerophosphoinositol was added to cultured cells 20 minutes before LPS, IL-10 and TGF-β, that is, again after each wash. The growth medium was collected at time 4 h, 14 h, 24 h, 48 h; growth medium from freshly isolated monocytes was considered as control at time 0 h. The levels of cytokines Interleukin 1β (IL-1β), Tumor necrosis factor α (TNFα) and Interleukin-6 (IL-6) in the supernatants were measured by enzyme-linked immunosorbent assay (ELISA kit, R&D System) according to manufacturer's protocol. An increased release of these cytokines was observed during the full inflammation (time 4 h and 14 h) as expected. […]
Extracellular levels of IL-1β, TNFα and IL-6 were measured by enzyme-linked immunosorbent assay (ELISA) from R&D System. […] Then the recovered supernatants were loaded onto plates according to manufacturer's protocol and the concentration of the protein was assessed spectrophotometrically.

[2] = test system: cyclooxygenase 2 (COX-2) gene expression; test: In vitro model of human inflammation: real-time PCR of COX-2; type: cell-based; settings: 300 μM; 4 h, 14 h, 24 h, 48 h; effect mainly at 4 h and 14 h; one donor, preliminary
Procedure: as §3, §4

TxB-2 = test: ELISA of TxB-2 in medium of LPS-stimulated monocytes; type: cell-based, human; settings: 300 μM
Procedure: as §1, §2

IL-1β = test: ELISA of IL-1β in medium of LPS-stimulated monocytes; type: cell-based, human; settings: 300 μM
Procedure: as §1, §2

`O=P(O)(OCC(O)CO)OC1C(O)C(O)C(O)C(O)C1O` (stereo not drawn) [GroPIns, glycerophosphoinositol] was tested, and the “level of TNFα in the medium” value (TNFα; 0.1 μg/ml LPS for 5 h) was “very small effects”, the “level of TNFα in the medium” value (TNFα; 0.1 μg/ml LPS for 24 h) was “significantly reduced” and the “IκB-α mRNA expression” value [1] was “affected the expression of IκB-α”. The “amount of IL-6 in the supernatants” value (Interleukin-6 (IL-6)) was “significantly reduced the amount of these cytokines in the supernatants”, the “COX-2 mRNA expression” value [2] was “hampered the expression” and the “level of TxB-2 in the medium” value (TxB-2; 0.1 μg/ml LPS for 5 h) was “very small effects”. For the same compound, the “level of TxB-2 in the medium” value (TxB-2; 0.1 μg/ml LPS for 24 h) was “significantly reduced”, the “level of IL-1β in the medium” value (IL-1β; 0.1 μg/ml LPS for 5 h) was “very small effects” and the “level of IL-1β in the medium” value (IL-1β; 0.1 μg/ml LPS for 24 h) was “significantly reduced”.
